For one data set, the system named is B16 melanoma cells. Put plainly: In vitro cytotoxicity against B16 melanoma cells (neutral red staining). It counts as cell-based. The conditions noted are these: 72 hours at 37°C, colorimetric at 540 nm, IC₅₀ higher than 100 µg/ml = lack of cytotoxic activity. How it is done: Cytotoxicity of compounds of the present invention was studied using B16 melanoma cells. B16 melanoma cells were grown to the logarithmic phase in the enriched Eagle minimum essential medium supplemented with fetal calf serum (10%) and kanamycin (60 mcg/ml). The tumor cells were harvested and implanted into wells of the 96-well microtiter plate with test materials at the inoculum size of 3.0 x 10⁴ cells/ml. They were incubated at 37°C in humidified atmosphere of 5% CO₂ and 95% air for 72 hours. The cytotoxic activity against the above cell line was determined colorimetrically at 540 nm after staining viable cells with neutral red and is reported in terms of the concentration that inhibits 50% of cell growth (IC₅₀). IC₅₀ values of higher than 100 µg/ml are generally considered as indicating lack of cytotoxic activity.

In the next data set the test system is P388 leukemia. Put plainly: Antitumor activity against murine transplantable P388 leukemia (survival). It counts as in vivo, CDF₁ mice. The conditions noted are these: maximum % T/C only, at the dose giving the maximum effect (dose column of Table I); single intraperitoneal dose on day 1; observed 45 days; 10⁶ P388 cells ip; % T/C of 125 or greater = significant. How it is done: Representative compounds of the present invention were evalnated for anti tumor activity against murine transplantable P388 leukemia. Five-week old female CDF₁ mice were inoculated intraperitoneally with 0.4 ml of diluted ascitic fluid containing 10⁶ lymphocytic leukemia P388 cells. […] The percent increase of median survival time (MST) of treated animals over that of untreated control animals was determined and reported as % T/C. Compounds showing % T/C values of 125 or greater are considered to have significant antitumor activity. Table I presents the results of the in vivo evaluation; only the maximum % T/C and the dose giving the maximum effects are reported.

The conditions of data set [1]: Seligman et al, Cancer Chemotherapy Reports Part I, 1975; cited from earlier work.
Data set [2] has as its target T1, prostatic acid phosphatase (Homo sapiens, UniProt P15309).
T1 sequence (P15309 33-386): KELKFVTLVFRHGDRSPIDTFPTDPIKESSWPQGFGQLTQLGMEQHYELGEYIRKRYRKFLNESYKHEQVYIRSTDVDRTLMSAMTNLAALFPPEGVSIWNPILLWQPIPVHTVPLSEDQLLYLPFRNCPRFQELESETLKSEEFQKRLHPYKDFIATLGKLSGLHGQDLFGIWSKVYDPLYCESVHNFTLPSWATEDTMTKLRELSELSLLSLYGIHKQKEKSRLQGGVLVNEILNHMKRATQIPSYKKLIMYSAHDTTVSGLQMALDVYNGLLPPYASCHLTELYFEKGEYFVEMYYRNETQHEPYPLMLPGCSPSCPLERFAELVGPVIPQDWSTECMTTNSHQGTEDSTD
To be noted: Seligman et al, Cancer Chemotherapy Reports Part I, 1975; cited from earlier work.

≈ marks a conversion by molar mass, not a printed value.

Usually IC50 stands for the concentration that gives 50% inhibition. Low readings indicate inhibition by little substance, high ones a need for much substance. With `COc1cc([C@@H]2c3cc4c(cc3[C@@H](O[C@@H]3O[C@@H]5CO[C@@H](C)O[C@H]5[C@H](O)[C@H]3O)[C@H]3COC(=O)[C@H]23)OCO4)cc(OC)c1O` [Etoposide, etoposide, reference compound], the IC50 in the data set on B16 melanoma cells (Mus musculus) was found to be 0.21 µg/mL (≈ 0.357 µM). The “%T/C of MST” value with P388 leukemia came to 250%.

With “disodium etoposide 2˝ -phosphate [Compound XII]”, the IC₅₀ in the data set on B16 melanoma cells was determined as 20 µg/mL. Further, the “%T/C of MST” value in the data set with P388 leukemia is 120%.

“disodium etoposide 3˝-phosphate [Compound XI]” had an IC₅₀ in the data set on B16 melanoma cells of 2.2 µg/mL. Moreover, the “%T/C of MST” value with P388 leukemia stood at 185%.

On to “etoposide 2˝,3˝-ditosylate [Compound XIX]”, for which the IC₅₀ in the data set with B16 melanoma cells came out at 30 µg/mL. The “%T/C of MST” value in the data set with P388 leukemia turned out to be 100%.

Consider etoposide 2˝-mesylate [Compound XXIV], for which the IC₅₀ in the data set on B16 melanoma cells amounted to 29 µg/mL. Besides, the “%T/C of MST” value with P388 leukemia is given as 130%.

Compound etoposide 2˝-tosylate [Compound XVIII] showed an IC₅₀ in the data set on B16 melanoma cells of 5.4 µg/mL. Further, the “%T/C of MST” value in the data set on P388 leukemia was found to be 115%.

Compound etoposide 3˝-diphenyl phosphate [XXVI] displayed an IC₅₀ in the data set on B16 melanoma cells of 8.0 µg/mL. Besides, in the data set on P388 leukemia, the “%T/C of MST” value is recorded as 130%.

In turn, etoposide 3˝-mesylate [Compound XXIII] showed an IC₅₀ in the data set on B16 melanoma cells of 0.32 µg/mL. In addition, the “%T/C of MST” value in the data set on P388 leukemia is listed as 175%.

The compound etoposide 3˝-tosylate [Compound XVII] registered an IC₅₀ in the data set on B16 melanoma cells of 0.07 µg/mL. The “%T/C of MST” value with P388 leukemia amounted to 195%.

In the case of podophyllotoxin phosphate disodium salt, the “toxicity over the parent podophyllotoxin” value in data set [1] is “did not show reduced toxicity”. Further, the “hydrolysis by prostatic acid phosphatase” value in data set [2] is reported as “not hydrolyzed”.

Consider “sodium bis(etoposide-3˝-)phosphate [Compound XIII]”, for which the IC₅₀ with B16 melanoma cells was 37 µg/mL. In addition, in the data set on P388 leukemia, the “%T/C of MST” value came to 125%.

The values above are taken from EP0367189A2, “Sugar phosphates and sulfonates of epipodophyllotoxin glucosides” (Bristol-Myers Squibb Company, priority 1988, dated 1990).
